According to US10718760B2, “Method for drug binding analysis in a tissue sample” (Treat4Life AB, priority 2015, dated 2020):

Target: BRAF target protein with V600E mutation (Homo sapiens, UniProt P15056, V600E)
Experiment: MALDI-MSI displacement competitive binding on malignant melanoma tissue sections
Conditions: for Isotope Signal: 1 hour, MS/MS m/z 389.1
Description: (1) Making 10 micrometer sectioning of the frozen Human Malignant Melanoma tissues performed at −20° C. Thereafter, (2) sample preparation was preformed by slowly thawing and drying the tumor sections at room temperature. Then, the sections were immersed into methanol for 5 min and dried at room temperature. Correspondingly, frozen Human healthy tissue resected from lymphoid nodes were handled in the same way, and used as negative controls. (3) Drug incubation was performed for one hour by using unlabeled ligand, here Vemurafenib, at a concentration of 100 nM (nanomolar) to determine the binding of the ligand molecule to its protein target. […] During titration experiments, the concentration of stable isotope labeled Vemurafenib was 100 nM, 1 μM, 10 μM and 100 μM, (micro Molar), respectively. (4) After incubation, the sections were washed by PBS 3 times and then followed by washing with MilliQ water 3 consecutive times, and (5) mass spectra were obtained using a MALDI LTQ-Orbitrap XL instrument (Thermo Scientific, Germany), and compound signals were obtained by the orbitrap and ion trap. Image analysis was conducted using ImageQuest (Thermo Scientific, Germany). For histological analysis, both H&E staining and immuno-histochemical analysis using monoclonal antibody against BRAF V600E were conducted.
The frozen Human Malignant Melanoma tissues were resected from lymphoid nodes, constituting the tumor tissue. The tissue sections were sections with 10 μm (micro meter) slices thick by the use of a cryostat, performed at −20° C. After sectioning, the slices were slowly thawed and dried at room temperature. Then, the sections were immersed into methanol for 5 min and dried at room temperature. Correspondingly, frozen Human healthy tissue resected from lymphoid nodes was used as negative controls.
Incubation was made for one hour by using unlabeled Vemurafenib at a concentration of 100 nM (nanomolar) to determine the binding of the drug molecule to its protein target. […] The incubation time during competitive binding was 1 hour. […] During titration experiments, the concentration of stable isotope labeled Vemurafenib was 100 nM, 1 μM, 10 μM and 100 μM, (micro Molar), respectively.
After incubation, the sections were washed by PBS 3 times and then followed by washing with MilliQ water 3 consecutive times.
The mass spectra were obtained using a MALDI LTQ-Orbitrap XL instrument (Thermo Scientific, Germany). The compound signals were obtained by the orbitrap and ion trap. Image analysis was conducted using ImageQuest (Thermo Scientific, Germany). For histological analysis, both H&E staining and immuno-histochemical analysis using monoclonal antibody against BRAF V600E were conducted.
Binding intensity was calculated by identifying the area of biding from the mass spec image and the intensity read is calculated by the ImageQuest software of the instrument from the signal and background data.

Chain of BRAF target protein with V600E mutation (P15056 whole entry V600E): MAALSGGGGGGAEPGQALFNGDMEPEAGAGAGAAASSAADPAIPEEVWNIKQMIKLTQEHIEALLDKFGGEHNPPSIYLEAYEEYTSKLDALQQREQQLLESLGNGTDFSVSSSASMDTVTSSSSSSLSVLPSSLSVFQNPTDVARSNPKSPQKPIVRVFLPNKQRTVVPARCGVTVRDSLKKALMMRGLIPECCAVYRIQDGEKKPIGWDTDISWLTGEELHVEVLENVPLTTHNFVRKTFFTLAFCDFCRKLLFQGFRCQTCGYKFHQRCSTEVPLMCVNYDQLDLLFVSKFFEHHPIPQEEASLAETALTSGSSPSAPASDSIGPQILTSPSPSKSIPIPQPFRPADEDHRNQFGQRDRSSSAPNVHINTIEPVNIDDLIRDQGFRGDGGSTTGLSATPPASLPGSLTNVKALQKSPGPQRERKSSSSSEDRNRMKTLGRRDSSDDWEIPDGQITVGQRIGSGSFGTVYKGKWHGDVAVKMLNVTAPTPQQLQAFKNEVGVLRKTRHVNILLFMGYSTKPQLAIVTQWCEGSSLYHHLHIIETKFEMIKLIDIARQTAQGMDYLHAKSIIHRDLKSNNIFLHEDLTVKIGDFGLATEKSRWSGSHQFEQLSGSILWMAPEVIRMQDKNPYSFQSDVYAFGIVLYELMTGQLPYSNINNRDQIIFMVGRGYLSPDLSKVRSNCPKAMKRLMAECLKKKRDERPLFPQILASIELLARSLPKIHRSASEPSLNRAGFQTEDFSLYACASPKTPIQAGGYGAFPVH

Isotope Signal (0.1 μM ^13C-Vemurafenib co-incubated with 100 nM Vemurafenib): 326
Competition with 100 nM Vemurafenib (1 μM ^13C-Vemurafenib co-administered, m/z 389.1, V600E patient tissue): outcompeting the 100 nM Vemurafenib
Isotope Signal (1 μM ^13C-Vemurafenib co-incubated with 100 nM Vemurafenib): 3233
Isotope Signal (10 μM ^13C-Vemurafenib co-incubated with 100 nM Vemurafenib): 29870
Isotope Signal (100 μM ^13C-Vemurafenib co-incubated with 100 nM Vemurafenib): 259400
Substance: ^13C-Vemurafenib
